The values that follow come from PMC5765142, “New anti-inflammatory guaianes from the Atlantic hydrotherm-derived fungus Graphostroma sp. MCCC 3A00421” (Scientific Reports, 2018).

Where two headings read alike, the source gives them in different places. A value given as a limit tells only on which side of the number the result lay.

What all share (type): cell-based
Data set [1] concerns LPS-induced nitric oxide (NO) production in RAW264.7 macrophages. In words: Inhibition of LPS-induced NO production in RAW264.7 macrophages (anti-inflammatory assay). Particulars: LPS-stimulated, read-out: IC50 (μM), anti-inflammatory activity against LPS-stimulated NO production. The protocol: All isolates were evaluated for their anti-inflammatory activities against LPS-induced NO production in RAW264.7 macrophages (Table 3). […] This experiment was conducted according the reported procedure.

The subject of data set [2] is RAW 264.7 macrophages. In words: Cytotoxicity (CC50) in RAW 264.7 macrophages. How it is done:
(§1) This experiment was conducted according the reported procedure.

Data set [3] can be described thus: Cytotoxicity (CC50) in RAW 264.7 macrophages. The note with it: mouse. The protocol: as §1
The mark [4] stands for this setting: Mus musculus, RAW264.7, RAW 264.7 macrophages.

Regarding `N=C(N)NN` [Aminoguanidine, aminoguanidine, reference compound], the IC50 – broadly, the point on the concentration scale where inhibition reaches its midpoint – in data set [1] (RAW 264.7 macrophages) is 23.4 µM. In addition, the CC50 (commonly the concentration at which the toxic effect on the cells reaches its halfway point) in data set [2] is above 50 µM.

As to `C=C(C)C1CCC(C)(O)C2CC(O)C(C)C2C1` [Compound 1, (1R,3R,4R,5S,7R,10R)-11(13)-en-3,10-dihydroxyguaiene], in data set [1] (RAW 264.7 macrophages), the IC50 is 310 µM. In addition, in data set [3], the CC50 is above 50 µM.

As to `C=C(C)C1CCC(C)(O)C2CCC(C)C2C1` [Compound 2, (1R,4S,5S,7R,10R)-11(13)-en-10-hydroxyguaiene], the IC50 in data set [1] (setting [4]) turned out to be 103 µM. This compound registered a CC50 in data set [3] above 50 µM.

Turning to `C=C(C)C1CCC(C)(O)C2CC(O)C(C)C2C1` [Compound 3, (1R,3S,4R,5R,7R,10R)-11(13)-en-3,10-dihydroxyguaiene], the IC50 in data set [1] (RAW 264.7 macrophages) amounted to 113 µM. For the same compound, in data set [2], the CC50 was above 50 µM.

For the compound `C=C(C)[C@@H]1CC[C@@](C)(O)[C@@H]2CC(=O)[C@H](C)[C@H]2C1` [Compound 4, (1R,4S,5S,7R,10R)-3-oxo-11(13)-en-10-hydroxyguaiene], the IC50 in data set [1] (setting [4]) was determined as 72.9 µM. In data set [3], this compound displayed a CC50 above 50 µM.

As for `C=C(C)C1CCC(C)(O)C2C(O)CC(C)C2C1` [Compound 5, (1S,2S,4S,5S,7R,10R)-11(13)-en-2,10-dihydroxyguaiene], the IC50 in data set [1] (setting [4]) was found to be 138 µM. In data set [3], this compound had a CC50 above 50 µM.

In the case of `C=C(CO)[C@@H]1CC[C@@](C)(O)[C@H]2[C@@H](C1)[C@@H](C)C[C@@H]2O` [Compound 6, (1S,2S,4S,5S,7R,10R)-11(13)-en-2,10,12-trihydroxyguaiene], in data set [1] (setting [4]), the IC50 came to 14.2 µM. In data set [3], this compound had a CC50 above 50 µM.

Turning to `CC(=O)OCC(C)(O)C1CCC(C)(O)C2C(O)CC(C)C2C1` [Compound 7, (1S,2S,4S,5S,7R,10R,11R)-12-acetyl-2,10,11-trihydroxyguaiane], in data set [1] (setting [4]), the IC50 was 101 µM. Also, in data set [3], the CC50 was above 50 µM.

On to `C[C@](O)(CO)[C@@H]1CC[C@@](C)(O)[C@@H]2CC[C@@](C)(O)[C@@H]2C1` [Compound 8, (1R,4R,5R,7R,10R)-4,10,11-trihydroxyguaiane], for which the IC50 in data set [1] (setting [4]) is 166 µM. The CC50 in data set [3] was above 50 µM.

With `C[C@H]1CC[C@@H]2[C@H]1C[C@H]([C@@H](C)C(=O)O)CC[C@@]2(C)O` [Compound 9, (1R,4S,5S,7R,10R,11R)-10-hydroxyguai-12-oic acid], the IC50 in data set [1] (setting [4]) amounted to 79.1 µM. Moreover, the half-maximal cytotoxic concentration (CC50) in data set [3] is above 50 µM.

In the case of `C[C@H]1C[C@H](O)[C@@H]2[C@H]1C[C@H]([C@@](C)(O)CO)CC[C@@]2(C)O` [Compound 10, (1S,2S,4S,5S,7R,10R)-guaiane-2,10,11,12-tetraol], the IC50 in data set [1] (setting [4]) was 150 µM. This compound also showed a CC50 in data set [3] above 50 µM.

`C[C@H]1CC[C@@H]2[C@H]1C[C@H]([C@](C)(O)CO)CC[C@@]2(C)O` [Compound 11, (1R,4S,5S,7R,10R,11S)-guaiane-10,11,12-triol]: the IC50 in data set [1] (setting [4]) came to 141 µM. Also, the CC50 in data set [3] is above 50 µM.

With `C[C@@H]1[C@@H]2C[C@H]([C@](C)(O)CO)CC[C@@](C)(O)[C@@H]2C[C@@H]1O` [Compound 12, (1R,3S,4R,5S,7R,10R,11S)-guaiane-3,10,11,12-tetraol], the IC50 in data set [1] (setting [4]) worked out at 122 µM. Also, the CC50 in data set [3] is above 50 µM.

With `C[C@H]1CC[C@@H]2[C@H]1C[C@H]([C@@](C)(O)CO)C[C@@H](O)[C@@]2(C)O` [Compound 13, (1R,4S,5S,7S,9R,10S,11R)-guaiane-9,10,11,12-tetraol], the IC50 in data set [1] (setting [4]) turned out to be 88.2 µM. Also, the CC50 in data set [3] was above 50 µM.
